Here are results for eight compounds from PubChem BioAssay (NCI).

Structures are written as SMILES.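 Cells were grown in 96-well plates and exposed to each compound for 48 hours at five concentrations; endpoints were interpolated linearly between bracketing concentrations, or set to the highest concentration if not reached. GI50 marks 50% less growth. Definition used: TGI = concentration required for complete inhibition of growth.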

Among the test systems are NCI-H226 lung; KM12 colon; A549 NSCLC; OVCAR-3 ovarian; SF-539 CNS; HCT-15 colon; HOP-62 NSCLC; HS 578T breast; SW-620 colon; UACC-62 melanoma.
Holding throughout (assay): NCI-60 cell line screen, 48 h

In the case of `CN1CC[C@@H](c2c(O)cc(O)c3c(=O)cc(-c4ccc(C(F)(F)F)cc4Cl)oc23)[C@@H]1CO`, the GI50 with NCI-H226 lung was 10.5 µM; in the assay with KM12 colon it was 13.7 µM; in the assay on A549 NSCLC, 23.9 µM; in the assay on OVCAR-3 ovarian, 17 µM; in the assay with SF-539 CNS, 13.7 µM; in the assay on HCT-15 colon, 20.9 µM. Besides, the GI50 in the assay on HOP-62 NSCLC is 17.2 µM; in the assay on HS 578T breast, 11.8 µM; with SW-620 colon, 14.7 µM; in the assay on UACC-62 melanoma, 14.6 µM. Further, the TGI with NCI-H226 lung was 77.2 µM; in the assay on KM12 colon it was 30.4 µM; in the assay with A549 NSCLC, 56.2 µM; with OVCAR-3 ovarian, 46.9 µM; with SF-539 CNS, 28.8 µM; in the assay on HCT-15 colon, 78.2 µM. Also, the TGI with HOP-62 NSCLC is 43.5 µM; in the assay on HS 578T breast, 33.6 µM; in the assay with SW-620 colon, 31.5 µM; with UACC-62 melanoma, 32.8 µM.

Turning to `CC1(C)N=C(N)N=C(N)N1c1ccc(CCCCc2ccc(Cl)c(S(=O)(=O)F)c2)c(Cl)c1`, the GI50 in the assay with NCI-H226 lung was 4.18 µM; in the assay on KM12 colon it was 1.36 µM; in the assay on A549 NSCLC, 0.319 µM; in the assay on OVCAR-3 ovarian it was 2.22 µM; with SF-539 CNS, 0.542 µM; in the assay on HCT-15 colon it was 0.597 µM. For the same compound, the GI50 in the assay on HOP-62 NSCLC is 5.82 µM; in the assay with HS 578T breast, 9.71 µM; in the assay on SW-620 colon it was 0.147 µM; in the assay with UACC-62 melanoma it was 0.372 µM. In addition, the TGI with NCI-H226 lung is 37.6 µM; in the assay on KM12 colon, 7.81 µM; in the assay with A549 NSCLC, 3.98 µM; with OVCAR-3 ovarian, 15.1 µM; with SF-539 CNS it was 13 µM; in the assay with HCT-15 colon it was greater than 100 µM. Further, the TGI with HOP-62 NSCLC was greater than 43.7 µM; in the assay with HS 578T breast it was 34.2 µM; with SW-620 colon, 15.4 µM; in the assay on UACC-62 melanoma, greater than 47.9 µM.

Regarding `COc1cc(/C=C/C(=O)c2cccc(-n3cc(-c4ccc(Cl)cc4)[nH]c3=O)c2)ccc1O`, the GI50 with NCI-H226 lung was 6.38 µM; with KM12 colon, 1.6 µM; with A549 NSCLC, 4.67 µM; with OVCAR-3 ovarian it was 1.56 µM; in the assay on SF-539 CNS, 1.86 µM; in the assay on HCT-15 colon, 1.8 µM. In addition, the GI50 in the assay with HOP-62 NSCLC was 3.87 µM; in the assay on HS 578T breast, 3.78 µM; with SW-620 colon, 2.3 µM; with UACC-62 melanoma it was 2.5 µM. In addition, the TGI in the assay with NCI-H226 lung is 19.5 µM; with KM12 colon, 3.42 µM; in the assay with A549 NSCLC, greater than 37.7 µM; in the assay on OVCAR-3 ovarian, 3.57 µM; with SF-539 CNS, 4.05 µM; with HCT-15 colon, 7.07 µM. For the same compound, the TGI with HOP-62 NSCLC was found to be 15 µM; with HS 578T breast it was 26.9 µM; with SW-620 colon, 7.71 µM; in the assay with UACC-62 melanoma, 9.59 µM.

Take `Cc1ccc2c(C3C(C#N)=C(N)Oc4cc5ccccc5cc43)cc(=O)oc2c1` (stereo not given): the GI50 is 62.1 µM with NCI-H226 lung; 0.724 µM in the assay with KM12 colon; 2.95 µM with A549 NSCLC; 0.375 µM in the assay with OVCAR-3 ovarian; 0.873 µM with SF-539 CNS; 0.64 µM with HCT-15 colon. Further, the GI50 is 1.22 µM in the assay on HOP-62 NSCLC, 3.29 µM in the assay on HS 578T breast, 0.736 µM in the assay on SW-620 colon and 0.704 µM in the assay on UACC-62 melanoma. Further, the TGI with NCI-H226 lung is greater than 100 µM; in the assay on KM12 colon, greater than 100 µM; in the assay on A549 NSCLC, greater than 100 µM; in the assay with OVCAR-3 ovarian, 10.7 µM; with SF-539 CNS, 7.6 µM; with HCT-15 colon, greater than 100 µM. The TGI in the assay with HOP-62 NSCLC, with HS 578T breast, with SW-620 colon and with UACC-62 melanoma was greater than 100 µM throughout.

In the case of `COC12C(COC(N)=O)C3=C(C(=O)C(C)=C(N)C3=O)N1CC1C2N1C` (stereo not given), the TGI with NCI-H226 lung came out at 38.8 µM; in the assay with KM12 colon, 43.7 µM; with A549 NSCLC, 24.2 µM; in the assay on OVCAR-3 ovarian, 35.4 µM; in the assay with SF-539 CNS, 46.7 µM; in the assay on HCT-15 colon, 55.1 µM. Besides, the TGI in the assay with HOP-62 NSCLC came out at 16.8 µM; with HS 578T breast, 75.7 µM; with SW-620 colon it was 35.8 µM; in the assay with UACC-62 melanoma it was 11.1 µM.

With `O=C(NNc1ccccc1)C(=O)NNc1ccccc1`, the GI50 in the assay with NCI-H226 lung is greater than 100 µM; in the assay with KM12 colon it was 0.535 µM; in the assay on A549 NSCLC it was 3.53 µM; with OVCAR-3 ovarian, 17.7 µM; in the assay on SF-539 CNS, 2.63 µM; in the assay with HCT-15 colon it was 0.746 µM. In addition, the GI50 in the assay with HOP-62 NSCLC is greater than 100 µM; with HS 578T breast, greater than 100 µM; with SW-620 colon it was 7.3 µM; in the assay on UACC-62 melanoma, 0.43 µM. In addition, the TGI in the assay with NCI-H226 lung is greater than 100 µM; in the assay on KM12 colon it was greater than 100 µM; in the assay on A549 NSCLC, greater than 100 µM; in the assay on OVCAR-3 ovarian it was greater than 100 µM; in the assay with SF-539 CNS, 14.5 µM; with HCT-15 colon it was greater than 100 µM. Besides, the TGI in the assay on HOP-62 NSCLC, in the assay with HS 578T breast, in the assay on SW-620 colon and in the assay with UACC-62 melanoma was greater than 100 µM each time.

In the case of `C=COC(=O)N[C@H]1CCc2cc(OC)c(OC)c(OC)c2-c2ccc(SC)c(=O)cc21`, the TGI is 0.793 µM in the assay with NCI-H226 lung; 0.0388 µM in the assay with KM12 colon; 72.7 µM with A549 NSCLC; 0.0311 µM with OVCAR-3 ovarian; less than 0.0464 µM in the assay with SF-539 CNS; greater than 100 µM in the assay on HCT-15 colon. The TGI in the assay on HOP-62 NSCLC was greater than 86.6 µM; in the assay with HS 578T breast, greater than 4.64 µM; in the assay on SW-620 colon, greater than 100 µM; in the assay with UACC-62 melanoma, greater than 75 µM.

In the case of `C[C@@]12CCC[C@@](C)(C(=O)O)C1CC[C@]13CC(=O)[C@](CO)(C1)[C@@H](O)CC32` (stereo not given in full), the GI50 in the assay with NCI-H226 lung, in the assay on KM12 colon, with A549 NSCLC, in the assay on OVCAR-3 ovarian, in the assay with SF-539 CNS and with HCT-15 colon was greater than 100 µM in each case. Also, the GI50 in the assay with HOP-62 NSCLC, in the assay on HS 578T breast, in the assay on SW-620 colon and in the assay with UACC-62 melanoma was greater than 100 µM in each case. Besides, the TGI in the assay on NCI-H226 lung, in the assay on KM12 colon, in the assay on A549 NSCLC, with OVCAR-3 ovarian, with SF-539 CNS and in the assay on HCT-15 colon was greater than 100 µM each time. Further, the TGI in the assay with HOP-62 NSCLC, in the assay on HS 578T breast, in the assay on SW-620 colon and in the assay on UACC-62 melanoma was greater than 100 µM each time.
